DBAASP
≈ marks a conversion by molar mass, not a printed value. Each block holds one molecule with its values, some of them ahead of it.

Experiments:
Assay in all cases: ≥ marks a high value that may be exact or a test limit, other limits are often not marked, values filed in µg/mL are converted to µM
[1] = system: Candida tropicalis ATCC 13803
[2] = system: Staphylococcus aureus USA 300
[3] = system: Staphylococcus epidermidis 1457
[4] = system: Staphylococcus aureus MU50
[5] = system: Klebsiella pneumoniae ATCC 13883
[6] = system: Escherichia coli ATCC 25922
[7] = system: Pseudomonas aeruginosa PAO1
[8] = system: Bacillus subtilis 168
[9] = system: Staphylococcus aureus USA 400
[10] = system: Candida albicans ATCC 10231
[11] = system: Candida glabrata ATCC 2001
[12] = system: Staphylococcus aureus UAMS-1
[13] = system: Staphylococcus aureus Newman
[14] = system: Staphylococcus aureus USA 200
[15] = system: Cryptococcus neoformans ATCC 32045
[16] = system: Escherichia coli ATCC 2592
[17] = system: Pseudomonas aeruginosa ATCC 10145
[18] = system: Staphylococcus aureus ATCC 33591
[19] = system: Citrobacter koseri MTCC 1657
[20] = system: Alcaligenes faecalis MTCC 1937
[21] = system: Klebsiella pneumoniae MTCC 7407
[22] = system: Proteus vulgaris MTCC 1771
[23] = system: Klebsiella aerogenes MTCC 111
[24] = system: Acinetobacter baumannii MTCC 9829
[25] = system: Vibrio cholerae MTCC 3904
[26] = system: Alkalihalobacillus alcalophilus MTCC 860
[27] = system: Proteus mirabilis MTCC 3158
[28] = system: Shigella flexneri MTCC 1457
[29] = system: Staphylococcus haemolyticus MTCC 3383
[30] = system: Salmonella enterica MTCC 9844
[31] = system: Stenotrophomonas maltophilia MTCC 1890
[32] = system: Enterococcus faecalis MTCC 439
[33] = system: Corynebacterium glutamicum MTCC 2679
[34] = system: Salmonella enterica subsp. enterica serovar Typhimurium ATCC 14028
[35] = system: Klebsiella oxytoca MTCC 2275
[36] = system: Bordetella bronchiseptica MTCC 6837
[37] = system: Shigella boydii MTCC 11947
[38] = system: Haemophilus influenzae MTCC 621
[39] = system: Citrobacter freundii MTCC 1658
[40] = system: Pseudomonas aeruginosa MTCC 3542
[41] = system: Pluralibacter gergoviae MTCC 3826
[42] = system: Staphylococcus aureus MTCC 3160
[43] = system: Escherichia coli K12 MG1655
[44] = system: Salmonella typhimurium SL1344
[45] = system: Escherichia coli O157:H7
[46] = system: Escherichia coli MC1061
[47] = system: Escherichia coli J2210
[48] = system: Escherichia coli JW0013
[49] = system: Escherichia coli JJ2487
[50] = system: Salmonella enterica subsp. enterica serovar Enteritidis MH91989
[51] = system: Staphylococcus aureus ATCC 25923
[52] = system: Salmonella enterica subsp. enterica serovar Enteritidis BNCC 103134
[53] = system: Bacillus subtilis ATCC 6633

Compound: C[C@H](NC(=O)[C@H](Cc1ccccc1)NC(=O)[C@H](CCCCN)NC(=O)[C@H](CCCCN)NC(=O)[C@H](C)NC(=O)[C@H](Cc1ccccc1)NC(=O)[C@H](CCCCN)NC(=O)[C@H](CCCCN)NC(=O)[C@H](C)NC(=O)[C@H](Cc1ccccc1)NC(=O)[C@H](CCCCN)NC(=O)[C@H](CCCCN)NC(=O)[C@H](C)NC(=O)[C@H](Cc1ccccc1)NC(=O)[C@H](CCCCN)NC(=O)[C@H](CCCCN)NC(=O)[C@H](C)NC(=O)[C@H](Cc1ccccc1)NC(=O)[C@H](CCCCN)NC(=O)[C@H](CCCCN)NC(=O)[C@H](C)NC(=O)[C@H](Cc1ccccc1)NC(=O)[C@H](CCCCN)NC(=O)[C@H](CCCCN)NC(=O)[C@H](C)NC(=O)[C@H](Cc1ccccc1)NC(=O)[C@@H](N)CCCCN)C(=O)N[C@@H](CCCCN)C(=O)O [KFAKKFAKKFAKKFAKKFAKKFAKKFAK]
MIC [15]: 13.3 µM (≈ 44.5 µg/mL)
MIC [10]: 33.5 µM (≈ 112 µg/mL)
MIC [16]: 13.3 µM (≈ 44.5 µg/mL)
MIC [17]: 4.79 µM (≈ 16 µg/mL)
MIC [18]: ≥ 74.8 µM

Compound: CC(C)C[C@H](NC(=O)[C@H](CCCCN)NC(=O)[C@@H]1CCCN1C(=O)[C@H](CC(C)C)NC(=O)[C@H](CO)NC(=O)[C@H](CCCN=C(N)N)NC(=O)[C@H](C)NC(=O)[C@H](CCCCN)NC(=O)[C@H](CCCCN)NC(=O)[C@H](Cc1ccccc1)NC(=O)[C@H](Cc1ccccc1)NC(=O)[C@H](CCCCN)NC(=O)[C@H](CCCCN)NC(=O)[C@H](Cc1c[nH]c2ccccc12)NC(=O)[C@@H](N)CO)C(=O)N[C@@H](Cc1ccccc1)C(=O)O [SWKKFFKKARSLPKLF]
MIC [19]: 3.98 µM (≈ 8 µg/mL)
MIC [20]: 31.8 µM (≈ 64 µg/mL)
MIC [21]: 15.9 µM (≈ 32 µg/mL)
MIC [22]: 7.95 µM (≈ 16 µg/mL)
MIC [23]: 7.95 µM (≈ 16 µg/mL)
MIC [24]: 1.99 µM (≈ 4 µg/mL)
MIC [25]: 31.8 µM (≈ 64 µg/mL)
MIC [26]: 15.9 µM (≈ 32 µg/mL)
MIC [27]: ≥ 63.6 µM
MIC [28]: 1.99 µM (≈ 4 µg/mL)
MIC [29]: 3.98 µM (≈ 8 µg/mL)
MIC [30]: 3.98 µM (≈ 8 µg/mL)
MIC [31]: 7.95 µM (≈ 16 µg/mL)
MIC [32]: ≥ 63.6 µM
MIC [33]: 0.994 µM (≈ 2 µg/mL)
MIC [34]: 3.98 µM (≈ 8 µg/mL)
MIC [35]: 7.95 µM (≈ 16 µg/mL)
MIC [36]: 0.497 µM (≈ 1 µg/mL)
MIC [37]: 0.994 µM (≈ 2 µg/mL)
MIC [38]: 0.994 µM (≈ 2 µg/mL)
MIC [39]: 15.9 µM (≈ 32 µg/mL)
MIC [40]: 15.9 µM (≈ 32 µg/mL)
MIC [41]: 31.8 µM (≈ 64 µg/mL)
MIC [42]: ≥ 63.6 µM
MIC [43]: 1.99 µM (≈ 4 µg/mL)

Compound: CC[C@H](C)[C@H](NC(=O)[C@H](CCCN=C(N)N)NC(=O)[C@H](CCCN=C(N)N)NC(=O)[C@@H]1CCCN1C(=O)[C@@H]1CCCN1C(=O)[C@H](CCCN=C(N)N)NC(=O)[C@@H]1CCCN1C(=O)[C@H](CCCN=C(N)N)NC(=O)[C@@H]1CCCN1C(=O)[C@H](CCCCN)NC(=O)[C@H](Cc1ccc(O)cc1)NC(=O)[C@@H]1CCCN1C(=O)[C@@H]1CCCN1C(=O)[C@H](CCCCN)NC(=O)[C@H](CC(=O)O)NC(=O)[C@@H](N)C(C)C)C(=O)N[C@@H](Cc1ccc(O)cc1)C(=O)N[C@@H](CC(N)=O)C(=O)N[C@@H](CCCN=C(N)N)C(N)=O [VDKPPYKPRPRPPRRIYNR]
MIC [44]: 0.249 µM (≈ 0.6 µg/mL)
MIC [45]: 0.998 µM (≈ 2.4 µg/mL)
MIC [46]: 0.0623 µM (≈ 0.15 µg/mL)
MIC [47]: 0.125 µM (≈ 0.3 µg/mL)
MIC [48]: 0.249 µM (≈ 0.6 µg/mL)
MIC [49]: 0.328 µM (≈ 0.79 µg/mL)
MIC [50]: 0.249 µM (≈ 0.6 µg/mL)

More lines, now with the values ahead:

MIC [1]: 6.2 µM (≈ 8.95 µg/mL)
MIC [2]: 6.3 µM (≈ 9.09 µg/mL)
MIC [3]: 6.3 µM (≈ 9.09 µg/mL)
MIC [4]: 12.5 µM (≈ 18 µg/mL)
MIC [5]: ≥ 50 µM
MIC [6]: > 50 µM
MIC [7]: > 50 µM
MIC [8]: 12.5 µM (≈ 18 µg/mL)
MIC [9]: 6.25 µM (≈ 9.02 µg/mL)
MIC [10]: 25 µM (≈ 36.1 µg/mL)
MIC [11]: 25 µM (≈ 36.1 µg/mL)
MIC [12]: 25 µM (≈ 36.1 µg/mL)
MIC [13]: 12.5 µM (≈ 18 µg/mL)
MIC [14]: 6.25 µM (≈ 9.02 µg/mL)
Compound: CC[C@H](C)[C@H](NC(=O)[C@H](C)NC(=O)[C@H](CO)NC(=O)[C@H](CC(C)C)NC(=O)[C@@H](N)Cc1ccccc1)C(=O)N[C@H](C(=O)N[C@@H](CO)C(=O)N[C@H](C(=O)N[C@@H](CC(C)C)C(=O)NCC(=O)N[C@@H](CCCCN)C(=O)N[C@@H](Cc1ccccc1)C(=O)N[C@@H](Cc1ccccc1)C(N)=O)[C@@H](C)CC)[C@@H](C)O [FLSAITSILGKFF]

MIC [51]: 300 µM (≈ 221 µg/mL)
MIC [52]: ≥ 350 µM
MIC [6]: 200 µM (≈ 148 µg/mL)
MIC [53]: ≥ 300 µM
Compound: C[C@@H](O)[C@H](NC(=O)[C@H](Cc1ccccc1)NC(=O)[C@H](CO)NC(=O)[C@@H](NC(=O)[C@@H]1CCCN1C(=O)[C@@H](N)Cc1c[nH]c2ccccc12)[C@@H](C)O)C(=O)O [WPTSFT]
